Measured values from ChEMBL document CHEMBL1122144, “(+/-)-4-Aryl-4,5-dihydro-3H-1,3-benzodiazepines. 1. Synthesis and evaluation of (+/-)-4,5-dihydro-2,3-dimethyl-4-phenyl-3H-1,3-benzodiazepine and analogues as potential antidepressant agents” (J Med Chem, 1982).

Assays:
[1] = test system: Mus musculus; experiment: In vivo antidepressant activity assessed by prevention of tetrabenazine-induced ptosis in mice following i.p. administration.; format: functional
[2] = species: Mus musculus; experiment: Compound was tested for physostigmine lethality in mouse.; format: functional
[3] = test system: Mus musculus; experiment: Compound was tested in vivo for antagonism of oxotremorine induced -tremors in mouse.; format: functional
[4] = test system: Mus musculus; experiment: Compound was tested in vivo for antagonism of oxotremorine induced salivation in mouse.; format: functional
[5] = test system: Mus musculus; experiment: Compound was tested in vivo for potential antidepressant activity which was assessed by its prevention of tetrabenazine-induced ptosis in mice; format: functional
[6] = test system: Mus musculus; experiment: In vivo for the inhibition of potentiation of yohimbine -induced toxicity in mouse; format: functional
[7] = Compound was tested in vitro for its ability to displace [3H]quinuclidine benzylate (QNB) from Muscarinic acetylcholine receptor on rat whole brain membranes.; format: cell membranes
[8] = species: Rattus norvegicus; experiment: In vitro inhibition against neuronal uptake of dopamine in striatum.; format: functional
[9] = species: Rattus norvegicus; experiment: In vitro inhibition against neuronal uptake of norepinephrine in whole brain; format: functional
[10] = species: Rattus norvegicus; experiment: In vitro inhibition against neuronal uptake of serotonin in whole brain.; format: functional
[11] = test system: Rattus norvegicus; experiment: Compound was screened in vivo for antidepressant activity by 5 HTP potentiation method in rat.; format: functional
[12] = test system: Mus musculus; experiment: Inhibition of pentylenetetrazole lethality in mice (po); format: functional
[13] = test system: Mus musculus; experiment: Prevention of tetrabenazine-induced ptosis in mice (ip); format: functional
[14] = test system: Mus musculus; experiment: Prevention of amphetamine aggregation toxicity in mice (po); format: functional
[15] = test system: Rattus norvegicus; experiment: Potentiation of 5-HT induced behavioral syndrome in pargyline-pretreated rats (ip); format: functional
[16] = test system: Rattus norvegicus; experiment: In vivo for the inhibition of muricidal activity. The effective dose (intraperitoneally) required for the activity was determined in rat; format: functional; conditions: ip
[17] = test system: Rattus norvegicus; experiment: Compound was screened in vivo for antidepressant activity by tryptamine seizure potentiation method in rat.; format: functional
[18] = test system: Rattus norvegicus; experiment: Compound was tested in vitro for beta -adrenergic sensitivity and administered to rats at 10 mg/kg, perorally, twice daily for 10 days.; format: functional; conditions: 240 h, route oral
[19] = test system: Mus musculus; experiment: In vivo inhibition of potentiation of yohimbine -induced toxicity in mouse; format: functional
[20] = test system: Rattus norvegicus; experiment: In vivo effective dose for intraperitoneal administration required for the muricidal activity was determined in rat; format: functional; conditions: ip
[21] = species: Rattus norvegicus; experiment: In vitro inhibition against neuronal uptake of dopamine in rat striatum; format: functional
[22] = species: Rattus norvegicus; experiment: In vitro inhibition against neuronal uptake of norepinephrine in rat hypothalamus; format: functional
[23] = species: Rattus norvegicus; experiment: In vitro inhibition against neuronal uptake of norepinephrine in rat whole brain; format: functional
[24] = test system: Rattus norvegicus; experiment: Compound was screened in vivo for antidepressant activity by 5 HTP potentiation method in rat; format: functional
[25] = test system: Rattus norvegicus; experiment: Compound was tested for beta -adrenergic sensitivity when administered to rats at 10 mg/kg, perorally, twice daily for 10 days.; format: functional; conditions: 240 h, route oral
[26] = Mus musculus, ip, read-out: ED50

**Q.** For C1=NC(c2ccccc2)Cc2ccccc2N1 (stereo not given), which ED50 [1, 26] is on record?
**A.** The ED50 was ~20 mg/kg.

**Q.** Which ED50 [1, 26] does the source give for CCCN1C(C)=Nc2ccccc2CC1c1ccccc1 (stereo not given) here?
**A.** The ED50 was > 5 mg/kg.

**Q.** Which ED50 [2] does the source give for CN(C)CCC=C1c2ccccc2CCc2ccccc21 [AMITRIPTYLINE] here?
**A.** The ED50 was 9.6 mg/kg.

**Q.** What about the ED50 [3] of the same compound?
**A.** Its ED50 is 1.3 mg/kg.

**Q.** What about the ED50 [4] of the same compound?
**A.** The ED50 was > 5 mg/kg.

**Q.** And the ED50 [5]?
**A.** Its ED50 is 1.9 mg/kg.

**Q.** What about the ED50 [6] of the same compound?
**A.** Its ED50 is 8 mg/kg.

**Q.** What about the ED50 [1, 26] of the same compound?
**A.** Its ED50 is 1.5 mg/kg.

**Q.** And the IC50 [7]?
**A.** Its IC50 is 3 µM.

**Q.** What about the IC50 [8] of the same compound?
**A.** The IC50 was 14 µM.

**Q.** What about the IC50 [9] of the same compound?
**A.** Its IC50 is 4.7 µM.

**Q.** And the IC50 [10]?
**A.** The IC50 was 2 µM.

**Q.** And the ED50 [11]?
**A.** The ED50 was 7.1 mg/kg.

**Q.** Which ED50 [1, 26] does the source give for CC1=Nc2ccccc2CC(c2ccccc2)N1CC1CCCCC1 (stereo not given) here?
**A.** Its ED50 is ~20 mg/kg.

**Q.** For CCN1C(C)=Nc2ccccc2CC1c1ccccc1 (stereo not given), which ED50 [1, 26] is on record?
**A.** Its ED50 is ~20 mg/kg.

**Q.** With CC(=O)C(Cc1ccccc1NCN1C(=O)CCC1=O)c1ccccc1 (stereo not given) as the compound, how does the ED50 [12] read?
**A.** The ED50 was > 40 mg/kg.

**Q.** What about the ED50 [13] of the same compound?
**A.** The ED50 was > 20 mg/kg.

**Q.** And the ED50 [14]?
**A.** Its ED50 is > 20 mg/kg.

**Q.** And the ED50 [15]?
**A.** The ED50 was > 10 mg/kg.

**Q.** Which ED50 [1, 26] does the source give for CC1=NC(c2ccccc2)Cc2ccccc2N1C (stereo not given) here?
**A.** Its ED50 is > 20 mg/kg.

**Q.** For CN1C(c2ccccc2)=Nc2ccccc2CC1c1ccccc1 (stereo not given), which ED50 [1, 26] is on record?
**A.** Its ED50 is > 20 mg/kg.

**Q.** Which ED50 [1, 26] does the source give for CC1=Nc2ccccc2CC(c2ccccc2)N1Cc1ccccc1 (stereo not given) here?
**A.** The ED50 was > 20 mg/kg.

**Q.** For CC1=NC(c2ccccc2)Cc2ccccc2N1 (stereo not given), which ED50 [1, 26] is on record?
**A.** Its ED50 is > 20 mg/kg.

**Q.** With CNCCCN1c2ccccc2CCc2ccccc21 [DESIPRAMINE] as the compound, how does the ED50 [16] read?
**A.** The ED50 was 8.2 mg/kg.

**Q.** What about the ED50 [17] of the same compound?
**A.** Its ED50 is > 25 mg/kg.

**Q.** What about the inhibition in vivo at 10 mg/kg [18] of the same compound?
**A.** The inhibition in vivo at 10 mg/kg was -50%.

**Q.** With CN1C=Nc2ccccc2CC1c1ccccc1 (stereo not given) as the compound, how does the ED50 [1, 26] read?
**A.** The ED50 was 9.7 mg/kg.

**Q.** With CCCC1=Nc2ccccc2CC(c2ccccc2)N1C (stereo not given) as the compound, how does the ED50 [1, 26] read?
**A.** Its ED50 is > 20 mg/kg.

**Q.** For c1ccc(C2=NC(c3ccccc3)Cc3ccccc3N2)cc1 (stereo not given), which ED50 [1, 26] is on record?
**A.** Its ED50 is > 20 mg/kg.

**Q.** Which ED50 [1, 26] does the source give for c1ccc(C2Cc3ccccc3NC(C3CC3)=N2)cc1 (stereo not given) here?
**A.** Its ED50 is > 20 mg/kg.

**Q.** With CNC(Cc1ccccc1[N+](=O)[O-])c1ccccc1 (stereo not given) as the compound, how does the ED50 [12] read?
**A.** The ED50 was > 40 mg/kg.

**Q.** What about the ED50 [14] of the same compound?
**A.** Its ED50 is > 20 mg/kg.

**Q.** And the ED50 [15]?
**A.** Its ED50 is > 10 mg/kg.

**Q.** Which results are given for CC1=Nc2ccccc2CC(c2ccccc2)N1C.Cl (stereo not given) [DAZEPINIL HYDROCHLORIDE]?
**A.** ED50 [3]: > 25 mg/kg; ED50 [4]: > 25 mg/kg; ED50 [19]: 5.9 mg/kg; ED50 [1]: 2.1 mg/kg; ED50 [1, 26]: 1.5 mg/kg; ED50 [20]: > 20 mg/kg; IC50 [21]: 5.3 µM; IC50 [22]: 0.9 µM; IC50 [23]: 1.7 µM; IC50 [10]: 8.4 µM; ED50 [24]: > 10 mg/kg; ED50 [17]: > 25 mg/kg; inhibition in vivo at 10 mg/kg [25]: -44%

**Q.** For CCC1=Nc2ccccc2CC(c2ccccc2)N1C (stereo not given), which ED50 [1, 26] is on record?
**A.** Its ED50 is 0.6 mg/kg.

**Q.** Which ED50 [1, 26] does the source give for CC1=NC(c2ccccc2)Cc2ccccc2N1c1ccccc1 (stereo not given) here?
**A.** The ED50 was > 20 mg/kg.

**Q.** Which ED50 [1, 26] does the source give for CN1C(C2CC2)=Nc2ccccc2CC1c1ccccc1 (stereo not given) here?
**A.** The ED50 was > 20 mg/kg.

**Q.** With CCC1=NC(c2ccccc2)Cc2ccccc2N1 (stereo not given) as the compound, how does the ED50 [1, 26] read?
**A.** Its ED50 is > 5 mg/kg.
